Converted amounts (≈) assume the structure as drawn.
What was measured:
Experiment in all cases: microbe, parasite or virus in culture
[1] = test system: Mycobacterium tuberculosis; details: 336 h
[2] = test system: Mycobacterium tuberculosis; details: MD96
[3] = test system: Mycobacterium tuberculosis; details: MD55
[4] = test system: Mycobacterium tuberculosis; details: R88
[5] = test system: Mycobacterium tuberculosis; details: R3027
[6] = test system: Mycobacterium tuberculosis; details: R296

Structure (SMILES) | MIC [1] [µM] | further results
CS(=O)(=O)NC(=O)NCc1cn(-c2ccc(Cl)cc2)nc1-c1ccncc1 | < 0.12 | 
CS(=O)(=O)NC(=O)CCc1cn(-c2ccc(Br)cc2)nc1-c1ccncc1 |  | MIC [2]: ≤ 30 µM; MIC [3]: 60 µM (≈ 27 µg/mL); MIC [4]: 30 µM (≈ 13.5 µg/mL); MIC [5]: 60 µM (≈ 27 µg/mL); MIC [6]: 60 µM (≈ 27 µg/mL)
CS(=O)(=O)NC(=O)NCc1cc(-c2ccc(Br)cc2)oc1-c1ccncc1 | < 0.13 | 
CS(=O)(=O)NC(=O)CCc1cn(-c2ccc(Cl)cc2)nc1-c1ccc(Cl)cc1 | 0.24 (≈ 0.105 µg/mL) | 
CS(=O)(=O)NC(=O)CCc1cn(-c2ccc(Br)cc2)nc1-c1ccc(Cl)cc1 | 0.4 (≈ 0.193 µg/mL) | 
NNC(=O)c1ccncc1 [ISONIAZID] | 31.2 (≈ 4.28 µg/mL) | 
CO[C@H]1/C=C/O[C@@]2(C)Oc3c(C)c(O)c4c(O)c(c(/C=N/N5CCN(C)CC5)c(O)c4c3C2=O)NC(=O)/C(C)=C\C=C\[C@H](C)[C@H](O)[C@@H](C)[C@@H](O)[C@@H](C)[C@H](OC(C)=O)[C@@H]1C [RIFAMPIN] | 0.001 (≈ 0.000823 µg/mL) | 

From ChEMBL document CHEMBL4842359, “1,3-Diarylpyrazolyl-acylsulfonamides as Potent Anti-tuberculosis Agents Targeting Cell Wall Biosynthesis in Mycobacterium tuberculosis” (J Med Chem, 2021)
